Patent US5874471A, “Orthomolecular medical use of L-citrulline for vasoprotection, relaxative smooth muscle tone and cell protection” (priority 1997, dated 1999)
Like-named read-outs stand apart in the source and are kept apart here.

Experiments:
migraine aura = conditions: inhalation of small amounts, some cases; cited from earlier work
platelet activity = conditions: cited from earlier work; for total bleeding time: low-dose / small therapeutic doses orally, humans
[1] = tested on: rabbit model of angioplasty; conditions: L-arginine hydrochloride 2.25% in drinking water; cited from earlier work
human platelets = conditions: cited from earlier work; for inhibition of L-arginine uptake into platelets: 300 μM extracellular concentration, L-arginine 30 μM
[2] = tested on: cortical spreading depression; conditions: rat, in vivo; cited from earlier work
[3] = cited from earlier work
[4] = rat; cited from earlier work
[5] = tested on: uterine muscle strips from gravid rats; conditions: L-arginine added to extracellular fluid; cited from earlier work
apoptosis = conditions: L-arginine-deficient (10 μM) environment; cited from earlier work
[6] = tested on: renal vasodilatory responses; conditions: aged compared to young hypertensives; cited from earlier work
[7] = parenteral injection, rats; cited from earlier work
[8] = tested on: experimental diabetes mellitus; conditions: long-term oral administration in marked amounts; cited from earlier work
[9] = tested on: hypercholesterolemic rabbit models; conditions: sixfold enrichment of dietary L-arginine; cited from earlier work
[10] = tested on: human semen specimens with low motility; conditions: between 1.0 and 4.0 mM, in vitro; cited from earlier work
[11] = tested on: spermatocytes of infertile men; conditions: 4 to 20 grams of arginine daily, oral; cited from earlier work
activated c-NOS = conditions: plasma L-arginine above normal fasting 75 to 90 μM; cited from earlier work
[12] = tested on: endothelium-dependent vasodilation; conditions: L-arginine infusion, humans with hypercholesterolemia; cited from earlier work
muscle fatigue = conditions: oral daily supplementation, healthy humans; cited from earlier work
hippocampal brain tissue = conditions: extracellular creatine increased by 3 mM; cited from earlier work
osteoporosis = conditions: oral supplements in large amounts; cited from earlier work
[13] = Total forearm bleeding time during oral L-citrulline; assay type: in vivo, human
Protocol: The same subject that was studied in Example 1 was studied by total bleeding time determinations before and during ingestion of daily doses of L-citrulline, in two divided subdoses. Forearm bleeding times were done by 3 to 5 mm cuts about 1 mm deep made perpendicular to the fold of the elbow during template methodology and a sphygmomanometer cuff maintained near 40 mm Hg pressure. Control bleeding times were 51/2 minutes. Bleeding time rose to 131/2 minutes after 2 days of ingestion of 8.5 grams daily. Bleeding time was prolonged at 13 minutes after 4 weeks of ingestion of 5.4 grams of L-citrulline daily in 2 divided doses.

[14] = Tolerability of oral L-citrulline (symptoms, blood count, serum chemistry); assay type: in vivo, human
Source text: (§1) Subsequently, the person cited in Example 4 followed an oral regimen of 3.6 grams of L-citrulline daily in two subdoses of 1.8 grams (morning and evening) for seven weeks. The frequency and intensity of the migraine pain episodes were reduced over this interval.
(§2) The subject cited in Example 1 and Example 2 above subsequently undertook oral supplementation with 4.5 grams of L-citrulline daily in 2 divided doses (morning and nightly) of 1.8 grams (in 2 capsules) and 2.7 grams (in 3 capsules) for 4 months. They continued their usual food intake. At the end of the 4-month period of supplementation with 4.5 grams daily, […] 9-hour overnight fasting plasma concentration of L-arginine measured at 102.3 μM, assayed in plasma within 30 minutes of venous blood sampling. This increased fasting plasma level contrasted from their lower normal fasting values of 83.0±1.1 μM measured months before, an increment about 20 μM greater.
(§3) The apparent nootropic effects from oral intake of L-citrulline are consistent with the inventive beneficial effects of L-citrulline as exogenous precursor in order to improve brain functions that may be mediated by enhanced L-arginine, creatine, and phosphocreatine stores within the central nervous system.

brain functions = test: Mental alertness, intellectual performance and mental fatigue on L-citrulline; assay type: in vivo, human; conditions: 4.5 grams daily, 4 months
Protocol: as §2, §3

[15] = rat, in vivo; cited from earlier work
[16] = in vivo; cited from earlier work
migraine pains = test: Migraine pain with oral L-citrulline; assay type: in vivo, human
Protocol: […] Their body weight was 59 kg. The subject gave a history of migraine pains with and without aura for about 15 years. Currently, the migraine pains were recurring about once to a few times weekly. Their parent had experienced migraine headaches for many years.
Shortly after the onset of a severe headache attack, the subject ingested 2.7 grams of L-citrulline, followed by another 2.7 grams about 1 hour later.
as §1

[17] = Plasma ultrafiltrate L-arginine level after oral L-citrulline (colorimetric assay); assay type: in vivo, human
Protocol: The one FIGURE contains graphs of plasma ultrafiltrate levels of L-arginine in the fasting state (9-10 hours) related to the daily amounts of L-citrulline ingested in two divided doses. Also depicted are levels 2-hours after ingestion of morning doses of L-citmulline (EXAMPLE 1).
A novel colorimetric method for the quantitative assay of free L-arginine in blood plasma was developed. The method measures the color product from monosubstituted guanidines without and with L-arginase incubation to destroy the arginine and the potential guanido color product that would be derived from L-arginine. The photometric decrease in guanido color product measures specifically the concentration of L-arginine. The L-arginine methodology was applied to ultrafiltrates of blood plasma after ultrafiltrations of separated plasma samples were done at 4° Celsius.
Blood plasma levels after 9 to 10 hours of overnight fasting averaged 83.0±1.1 μM (mean±SD of 3 determinations). Two hours after ingestion of 3.0 grams of L-citrulline in capsular form, plasma L-arginine level rose by […] to 132.7 μM. Overnight fasting plasma levels of L-arginine measured 125.2, 98.1, 90.8, 114.2, and 120.0 μM after ingestion of L-citrulline for 6 days at 6.0 grams, for 13 days at 2.4 grams, for 6 days at 3.4 grams, for 7 days at 6.8 grams, and for 2 days at 8.5 grams, respectively, in 2 divided doses (morning and nightly).
as §2

lacunar infarction = test: Recurrence of symptomatic lacunar infarction on daily citrulline; assay type: in vivo, human; conditions: 4.5 grams daily in two subdoses for many months
Source text: Aspirin in small daily doses is commonly recommended as antiplatelet and antithrombotic agent in cardiovascular disease, particularly for the secondary prevention of coronary artery thrombosis and myocardial infarction, and for cerebrovascular ischemic manifestations such as lacunar infarctions. This subject had experienced, five-years earlier, an acute episodic event of symptomatic lacunar infarction with virtual recovery.

[18] = 4-month regimen of 4.5 grams daily

Compound: CCCCCON=O [amyl nitrite]
- migraine aura (migraine aura): temporarily reversed migraine aura in some cases

Compound: CC(=O)Oc1ccccc1C(=O)O [aspirin, acetylsalicylic acid]
- total bleeding time (platelet activity): prolonged
- total bleeding time (platelet activity; listed as acetylsalicylic acid (aspirin)): prolongs the total bleeding time
- platelet activity (platelet activity; low-dose intake in humans): inhibits platelet activity

Compound: Cl.N=C(N)NCCC[C@H](N)C(=O)O [L-arginine hydrochloride]
- arterial thickening [1]: reduced thickening
- increase of plasma arginine levels [1]: about 2.6 times
- neoendothelium-dependent arterial muscle relaxation [1]: enhanced neoendothelium-dependent arterial muscle relaxation

Compound: NCCCC[C@H](N)C(=O)O [L-lysine]
- inhibition of L-arginine uptake into platelets (human platelets): inhibitory

Compound: N=C(N)NCCC[C@H](N)C(=O)O [L-arginine]
- oligemic vasoconstriction following cortical spreading depression [2]: reduces the oligemic vasoconstriction
- time to return to near fasting values ([3]; 24.8 grams L-arginine, normal adults): 3 h
- peak plasma arginine relative to fasting values ([3]; 24.8 grams L-arginine, fasting 90±6 μM): about 3.6 times
- plasma citrulline levels ([3]; oral 3-gram single doses of arginine, healthy humans): without a change in plasma citrulline levels
- plasma arginine levels ([3]; oral 3-gram single doses, healthy humans): raises plasma arginine levels acutely
- time of peak plasma arginine ([3]; single protein meal of about 30 to 50 grams (about 1 to 2 grams arginine)): 2 to 3 h
- time to return to near fasting levels ([3]; single protein meal of about 30 to 50 grams): 5 to 6 h
- brain tissue arginine level relative to plasma levels [4]: 20 to 30%
- muscle relaxation and quiescence [5]: dose-dependent muscle relaxation, and muscle quiescence
- protection from apoptosis (apoptosis): protects cells from apoptosis
- renal vasodilatory responses [6]: blunted in aged compared to young hypertensives
- time for plasma and tissue concentrations to return to normal [7]: 2 to 3 h
- glomerular hyperfiltration and abnormal filtration fraction hemodynamics [8]: prevents the glomerular hyperfiltration
- proteinuria [8]: ameliorates the proteinuria
- endothelial adhesiveness and atherogenesis [9]: markedly inhibits endothelial adhesiveness and atherogenesis
- increase in plasma arginine levels [9]: twofold increase
- nitric oxide-dependent vasodilation [9]: improves nitric oxide-dependent vasodilation
- Km (human platelets; read-out: apparent Km for uptake into human platelets): 26 ± 4 µM
- sperm motility [10]: enhances sperm motility in a concentration-dependent manner
- total sperm counts and motility rates [11]: may improve total sperm counts and motility rates
- endothelial nitric oxide production (activated c-NOS): augments endothelial nitric oxide production
- impaired endothelium-dependent vasodilation [12]: corrected

Compound: CN(CC(=O)O)C(=N)N [creatine]
- muscle fatigue with physical exercise (muscle fatigue): lessened muscle fatigue
- muscle stores of free creatine and phosphocreatine (muscle fatigue): greater muscle stores
- ATP levels (hippocampal brain tissue): without change in ATP levels
- anoxia-induced neuronal damage (hippocampal brain tissue): attenuated
- neurocyte viability after anoxic periods (hippocampal brain tissue): greater neurocyte viabilities
- neuronal free creatine and phosphocreatine levels (hippocampal brain tissue): large increases

Compound: NCCC[C@H](N)C(=O)O [L-ornithine]
- inhibition of L-arginine uptake into platelets (human platelets): inhibitory

Compound: O=C(O)O [calcium carbonate]
- skeletal bone loss in osteoporosis (osteoporosis): decreased the skeletal bone loss

Compound: NC(=O)CC[C@H](N)C(=O)O [L-glutamine]
- inhibition of L-arginine uptake into platelets (human platelets): inhibitory

Compound: NC(=O)NCCC[C@H](N)C(=O)O [L-citrulline]
- bleeding time ([13]; after 2 days of 8.5 grams daily, control 51/2 minutes): 131/2
- prolongation of total bleeding time ([13]; daily doses of 5.4 grams to 8.5 grams): about two-fold
- adverse side-effects ([14]; 3.6 grams daily for seven weeks, person): No adverse side-effects
- adverse symptoms [14, 18]: No adverse symptoms
- complete blood count and blood serum chemistry tests [14, 18]: remained normal
- adverse symptoms or untoward signs ([14]; Example 1 study, several weeks): No adverse symptoms or untoward signs
- mental alertness and intellectual performance (brain functions): enhanced
- mental fatigue (brain functions): less mental fatigue
- liver uptake in portal venous blood [15]: Without appreciable liver uptake
- blood-brain barrier passage [16]: readily passes the blood-brain barrier
- migraine pain intensity and duration (migraine pains; 2.7 grams at onset plus 2.7 grams about 1 hour later): markedly lessened in intensity and in duration
- nausea during migraine attack (migraine pains; 2.7 grams plus 2.7 grams about 1 hour later): Much less nausea
- frequency and intensity of migraine pain episodes (migraine pains; 3.6 grams daily in two subdoses, seven weeks): reduced
- increment in fasting plasma L-arginine ([17]; 4 months at 4.5 grams daily vs 83.0±1.1 μM before): about 20 μM
- metabolic adaptation to long-continued supplementation ([17]; 4 months, 4.5 grams daily): no significant metabolic adaptation
- elevation of plasma L-arginine versus equivalent L-arginine or protein meals ([17]; comparison with literature): more efficient and longer lasting
- blood plasma levels of L-arginine after overnight fasting (general statement) ([17]; daily dosage in two divided subdoses, 9 to 10 hours fasting): greater blood plasma levels of L-arginine even after overnight fasting
- blood plasma concentrations of free L-arginine (general statement) ([17]; single oral doses of 3.0 grams or more in capsules): promptly raised to much higher levels
- plasma L-arginine level rise ([17]; two hours after 3.0 grams L-citrulline in capsules, person, 102 kg, fasting 83.0±1.1 μM before): 62.4%
- recurrence of lacunar infarction (lacunar infarction): No manifestations of recurrence
